From patent publication EP2805705B1, “Packaging with one or more administration units comprising a sodium salt of (R)-3-[6-amino-pyridin-3-yl]-2-(1-cyclohexyl-1 H-imidazol-4-yl)-propionic acid” (IP Gesellschaft für Management mbH, priority 2013, dated 2014)

Key:
[1] = assay type: physicochemical; settings: At 90% RH, 25°C
Description: Said crystal Form I according to the invention (samples obtained according to the process of scheme 1) was characterized by several physical methods such as X-ray Powder Diffraction, Differential Scanning Calorimetry, Thenno-Gravimetric Analysis, Water-Activity isotherm measurement, as shown below. X-Ray Powder Diffraction (XRPD): XRPD experiments are carried out on a Braker AXS D8 powder diffractometer using the Bragg-Brentano parafocusing geometry. A thin layer of the product is deposited on a single-crystal silicon wafer, cut out according to Si (510) crystallographic orientation that, by systematic extinction, impedes any Bragg reflection. […] Diagrams are recorded in the following conditions: a 1.5 to 40.0° scan in angle 20, 10 and 100 seconds counting time per degree in 20, according to the amount of powder to be analyzed, and ambient conditions of pressure, temperature and relative humidity. […] Between 1.5 and 5 mg of the product to be analyzed is placed in a semi-open aluminum sample pan. An endo thermic peak is recorded (onset around 104°C). […] A controlled relative humidity is generated by mixing different proportions of dry and water saturated carrier gas streams (monitored by mass flow conti llers). […] From the complete moisture sorption and desorption profile an isotherm is calculated using the DVS Advanced Analysis Suite v3.6. […]

[2] = Chiral stability on storage as a solid at 40 °C and 75 % RH (chiral HPLC); assay type: physicochemical
Description: Example 8: Chiral stability: Representative samples of the crystalline sodium salt of (R)-3-[6-amino-pyridin-3-yl]-2-(1-cyclohexyl-1 H-imidazol-4-yl)-propionic acid sodium salt dihydrate as prepared in Example 3 were stored as a solid under the conditions (A) and (B): (A) 40 °C and 75 % RH 2 weeks; (B) 40 °C and 75 % RH 4 weeks: Results are shown in the following table:
Under the storage conditions the samples remain stable. […] The purity was determined by chiral HPLC on a HPLC system containing a Quaternary HPLC pump (e.g. HP 1100), an auto sampler, an UV absorbance detector (e.g. DAD Agilent Technologies or other adequate HPLC-System) and a computer data acquisition system with suitable software (e.g. Dionex-Chromeleon). A Zorbax SB_CN (4.6 x 100 mm, 3.5 µlτ ? ), column was used as stationary phase and two mobile phases A (975 mL water, 25 mL methanol, 1 mL perchloric acid) and B (975 mL methanol, 25 mL water) were used as mobile phases. The flow rate was set to a value of 1.0 mL/minute and the oven temperature was set to 15°C. Detection was performed by absorbance of the compounds at 236 nm (UV) (bandwidth: 4 nm) and reference wavelength was set to 450 nm (bandwidth: 50 nm). Typical total run times were in the range of about 10 minutes. For sample preparation 20 mg of the substance were accurately weighed into a 10 ml volumetric flask and dissolved and diluted to volume with solvent (acetonitrile/water 90:10 VN). Afterwards 1 ml of this solution was transferred to a 10 mL volumetric flask and then diluted to volume with water. For the HPLC analysis 5 µl of the sample were injected into the system. Gradient used: 0 min (time elapsed) 0% mobile phase B, 1 min 0% mobile phase B, 4 min 53% mobile phase B, 6 min 95% mobile phase B, 7 min 95% mobile phase B, 7.5 min 0% mobile phase B and after 10 min 0% mobile phase B. Enanatiomeric excess was determined by chiral HPLC on a HPLC system containing a Quaternary HPLC pump (e.g. HP 1100), an auto sampler, an UV absorbance detector (e.g. DAD Agilent Technologies or other adequate HPLC-System) and a computer data acquisition system with suitable software (e.g. Dionex-Chromeleon). A Chirobiotic R, Supelco (Astec) (4.6 x 250mm; 5µηη) column was used as stationary phase and a solution of 800 mL water, 1200 mL acetonitrile and 1.0 g ammoniumacetate was used as mobile phase. The flow rate was set to a value of 1.5 mL/minute and the oven temperature was set to 45°C. Detection was performed by absorbance of the compounds at 236 nm (UV) (bandwidth: 8 nm) and reference wavelength was set to 450 nm (bandwidth: 50 nm). Typical total run times were in the range of about 15 minutes. For sample preparation 50 mg of the substance were accurately weighed into a 10 mL volumetric flask and dissolved and diluted to volume with solvent (acetonitrile/water 50:50). For the HPLC analysis 5 µí of the sample were injected into the system. Gradient used: Isograt (15 minutes 100% mobile phase A).
Example 10: Chiral stability; Comparison Experiment: (R)-3-[6-amino-pyridin-3-yl]-2-(1-cyclohexyl-1 H-imidazol-4-yl)-propionic acid as prepared in Example 1 was used for the measurement. Representative samples of the compound (R)-3-[6-amino-pyridin-3-yl]-2-(1-cyclohexyl-1 H-imidazol-4-yl)-propionic acid as prepared in Example 1 were stored as a solid under the conditions (A) and (B) as defined in Example 8.

[3] = Dynamic vapor sorption (DVS), SPS11-10µ, one cycle at 25 °C; assay type: physicochemical; settings: DVS isotherm at 25 °C
Description: (§1) Example 7: Dynamic vapor sorption (DVS) of (R)-3-[6-amino-pyridin-3-yl]-2-(1-cyclohexyl-1 H-imidazol-4-yl)-propionic acid sodium salt monohydrate: Moisture sorption/desorption isotherms were recorded on a SPS11-10µ from Projekt Messtechnik (Ulm, Germany). One cycle was run at 25 °C, in which the sample was first stepwise decreased to 0% RH and then the relative humidity was stepwise increased from 0 to 95% and the weight of the sample was measured. Typical total measurement times for both cycles were about 20 to 30 hours. The measured data for the (R)-3-[6-amino-pyridin-3-yl]-2-(1-cyclohexyl-1 H-imidazol-4-yl)-propionic acid sodium salt monohydrate as prepared in Examples 2 or 3 are shown in the following table: DVS Isotherm at 25 °C:
(§2) Example 12: DVS, Comparison Experiment: (R)-3-[6-amino-pyridin-3-yl]-2-(1-cyclohexyl-1 H-imidazol-4-yl)-propionic acid as prepared in Example 1 was used for the measurement. The measurement was performed as disclosed in Example 7 with (R)-3-[6-amino-pyridin-3-yl]-2-(1-cyclohexyl-1 H-imidazol-4-yl)-propionic acid (free acid, amorphous) and the received data are shown in the following table: DVS Isotherm at 25 °C
as §1, with “(DVS):” for “(DVS) of (R)-3-[6-amino-pyridin-3-yl]-2-(1-cyclohexyl-1 H-imidazol-4-yl)-propionic acid sodium salt monohydrate:”, “Room humidity (RH)” for “RH”, “dihydrate” for “monohydrate”, “Example” for “Examples 2 or”, “isotherm” for “Isotherm”, “25°C:” for “25 °C:”
as §2, with “9:” for “12:”

| Structure (SMILES) | total water uptake [1] | Enantiomeric excess ([2]; Storage condition (A) 40 °C and 75 % RH 2 weeks, stored as a solid) | Enantiomeric excess ([2]; at the beginning) | Change In Mass (%) Desorption ([3]; Target RH 0.4 %) | Change In Mass (%) Sorption ([3]; Target RH 10.0 %) | Change In Mass (%) Desorption ([3]; Target RH 10.1 %) | Change In Mass (%) Desorption ([3]; Target RH 20.0 %) | Change In Mass (%) Sorption ([3]; Target RH 20.0 %) | Change In Mass (%) Sorption ([3]; Target RH 30.0 %) | Change In Mass (%) Desorption ([3]; Target RH 30.1 %) | Change In Mass (%) Sorption ([3]; Target RH 40.1 %) | Change In Mass (%) Sorption ([3]; Target RH 50.0 %) | Change In Mass (%) Sorption ([3]; Target RH 60.1 %) | Change In Mass (%) Sorption ([3]; Target RH 70.0 %) | Change In Mass (%) Sorption ([3]; Target RH 75.0 %) | Change In Mass (%) Sorption ([3]; Target RH 80.1 %) | Change In Mass (%) Sorption ([3]; Target RH 85.1 %) | Change In Mass (%) Sorption ([3]; Target RH 89.9 %) | Change In Mass (%) Sorption ([3]; Target RH 95.0 %) |
| --- | --- | --- | --- | --- | --- | --- | --- | --- | --- | --- | --- | --- | --- | --- | --- | --- | --- | --- | --- |
| COc1ccc(/C=C\c2cc(OC)c(OC)c(OC)c2)cc1NC(=O)[C@@H](N)CO [crystal Form I, (2S)-2-amino-3-hydroxy-N-[2-methoxy-2-[(1Z)-2-(3,4,5-trimethoxyphenyl)ethenyl]phenyl] propanamide] | less than 0.15 % (w/w) | – | – | – | – | – | – | – | – | – | – | – | – | – | – | – | – | – | – |
| Nc1ccc(C[C@@H](C(=O)O)c2cn(C3CCCCC3)cn2)cn1 [(R)-3-[6-amino-pyridin-3-yl]-2-(1-cyclohexyl-1 H-imidazol-4-yl)-propionic acid] | – | 94.9% | 98.2% | -1.6% | -0.5% | 0.3% | 1.1% | 0.5% | 1.9% | 1.7% | 3.9% | 6.6% | 9.6% | 13.4% | 15.0% | 16.9% | 20.1% | 25.1% | 32.3% |
